Patent publication EP4810052A2, “HCRHR2 SELECTIVE POLYPEPTIDES” (Gubra A/S, priority 2023, dated 2026)
Like-named read-outs stand apart in the source and are kept apart here. Starred links: 1 amine or outer side, 2 acyl side, 3 side chain; linkers in the order of their positions; H or OH if unused. Non-standard residues stand in square brackets, D forms with d. Residues, ends and D or L forms follow the SMILES beside them. Groups on a side chain read outwards from the residue. *: point of attachment. C20 diacid = O=C(O)CCCCCCCCCCCCCCCCCCC(=O)*; γGlu = O=C(O)[C@H](CCC(=O)[*:2])N[*:1]; NMeI = CC[C@H](C)[C@H](NC)C(=O)O; Nle = CCCC[C@H](N)C(=O)O; AEEA = NCCOCCOCC(=O)O; Aib = CC(C)(N)C(=O)O

Assays:
hCRHR2 = target: T1, hCRHR2 (Homo sapiens, UniProt Q13324); test: HTRF cAMP assay, determination of hCRHR2 potency (peptide libraries 5 conc., purified peptides 11 conc.); assay type: cell-based; conditions: read-out: hCRHR2 pEC50 (converted)
T1 sequence (Q13324 1-411): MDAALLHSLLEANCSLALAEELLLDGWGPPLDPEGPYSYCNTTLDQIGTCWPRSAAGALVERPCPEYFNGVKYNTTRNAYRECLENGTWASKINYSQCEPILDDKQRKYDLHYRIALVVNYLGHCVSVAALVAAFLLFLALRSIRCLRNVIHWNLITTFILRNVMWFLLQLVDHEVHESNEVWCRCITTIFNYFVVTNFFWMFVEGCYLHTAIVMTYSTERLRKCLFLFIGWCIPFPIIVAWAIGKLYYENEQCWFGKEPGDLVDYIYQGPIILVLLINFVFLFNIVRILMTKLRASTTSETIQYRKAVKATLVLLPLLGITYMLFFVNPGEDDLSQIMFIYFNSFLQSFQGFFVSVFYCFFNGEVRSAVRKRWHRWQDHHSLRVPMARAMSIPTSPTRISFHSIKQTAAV
Procedure, shortened: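 CHO-K1 cells stably expressing human CRHR2, thawed from frozen stocks just before use and run in suspension; cAMP measured by competitive HTRF immunoassay (cryptate anti-cAMP, d2-cAMP). Agonist peptides tested at 5 (libraries) or 11 (purified) concentrations; EC50 from sigmoid variable-slope nonlinear regression.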

hCRHR1 = target: T2, hCRHR1 (Homo sapiens, UniProt P34998); test: HTRF cAMP assay, determination of hCRHR1 potency (peptide libraries 5 conc., purified peptides 11 conc.); assay type: cell-based; conditions: read-out: hCRHR1 pEC50 (converted)
T2 sequence (P34998 24-415): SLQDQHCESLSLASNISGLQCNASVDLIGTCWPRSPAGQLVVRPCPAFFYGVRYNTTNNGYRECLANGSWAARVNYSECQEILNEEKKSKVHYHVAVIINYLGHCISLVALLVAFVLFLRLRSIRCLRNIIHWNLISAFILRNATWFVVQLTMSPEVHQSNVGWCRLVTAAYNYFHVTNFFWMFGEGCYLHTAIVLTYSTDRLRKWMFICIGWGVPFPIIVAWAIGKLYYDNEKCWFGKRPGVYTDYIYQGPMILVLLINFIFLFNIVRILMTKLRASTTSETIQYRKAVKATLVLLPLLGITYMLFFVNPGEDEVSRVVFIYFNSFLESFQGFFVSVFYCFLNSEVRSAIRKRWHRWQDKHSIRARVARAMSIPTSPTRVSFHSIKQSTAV
Excerpt: HTRF (CisBio) cAMP assay: The assay technology has thoroughly been described in the CisBio HTRF cAMP assay Kit manual (# 62AM4PEC). Briefly, time resolved fluorescence technic was applied to measure cAMP. This technic is based on a competitive immunoassay using cryptate-labelled anti-cAMP antibody and d2-labeled cAMP. In the absence of cellular cAMP, the anti-cAMP cryptate conjugate may get into proximity to cAMP-d2 conjugate and energy (FRET) can be transferred from cryptate to d2. CHO-K1 cells stably expressing the human corticotropin-releasing hormone receptor 1 (Eurofins/DiscoverX Cat #95-0047C2 hCRHR1 stable monoclonal cell lines) were used as cells in suspension, brought to life from frozen cell stocks immediately before assay performance. […] Concentration-response evaluation of compounds was performed with 5 concentrations of agonist peptides and EC50 values were calculated by nonlinear regression using sigmoid concentration-response with variable slope. Concentration-response evaluation of compounds was performed with 11 concentrations of agonist peptides and EC50 values were calculated by nonlinear regression using sigmoid concentration-response with variable slope.

[1] = Table 4, library peptides having X^38 = Nle
[2] = Table 3, matched molecular pairs X^38 L vs Nle, peptide library of Example 4

EC50 (hCRHR2; [1]) [nM] | EC50 (hCRHR1; [1]) [nM] | EC50 (hCRHR2; [2]) [nM] | EC50 (hCRHR1; [2]) [nM] | Structure (SMILES)
0.00501 | 100000 | – | – | CCCC[C@H](NC(=O)[C@@H](NC(=O)[C@H](CCC(=O)O)NC(=O)[C@H](C)NC(=O)[C@H](CC(N)=O)NC(=O)C(C)(C)NC(=O)[C@H](CCCCNC(=O)COCCOCCNC(=O)COCCOCCNC(=O)CC[C@H](NC(=O)CC[C@H](NC(=O)CCCCCCCCCCCCCCCCCCC(=O)O)C(=O)O)C(=O)O)NC(=O)[C@H](C)NC(=O)[C@H](CCC(N)=O)NC(=O)[C@H](CCC(=O)O)NC(=O)[C@H](CCCNC(=N)N)NC(=O)[C@H](C)NC(=O)[C@H](C)NC(=O)[C@H](CCCNC(=N)N)NC(=O)[C@H](C)NC(=O)[C@H](CCCNC(=N)N)NC(=O)[C@H](C)NC(=O)[C@H](CCC(N)=O)NC(=O)[C@H](Cc1ccccc1)NC(=O)[C@H](CC(C)C)NC(=O)[C@H](CC(C)C)NC(=O)[C@@H](NC(=O)[C@H](CCC(N)=O)NC(=O)[C@H](CC(C)C)NC(=O)[C@H](CC(C)C)NC(=O)CNC(=O)[C@@H](NC(=O)[C@@H]1CCCN1C(=O)[C@@H](NC(=O)[C@H](CC(=O)O)NC(=O)[C@H](CC(C)C)NC(=O)[C@H](CO)NC(=O)[C@H](CC(C)C)NC(=O)[C@@H](NC(=O)[C@@H](NC)[C@@H](C)CC)C(C)C)C(C)C)[C@@H](C)CC)[C@@H](C)CC)[C@@H](C)CC)C(=O)N[C@@H](C)C(=O)N[C@@H](CCC(=O)O)C(=O)N[C@H](C(N)=O)C(C)C [compound 128] (H-[NMeI]VLSLDVPIGLLQILLFQARARAAREQAK([AEEA-AEEA-γGlu-γGlu-C20 diacid])[Aib]NAEI[Nle]AEV-NH2)
– | – | 0.794 | 3980 | CC[C@H](C)[C@H](N)C(=O)N[C@H](C(=O)N[C@@H](CC(C)C)C(=O)N[C@@H](CO)C(=O)N[C@@H](CC(C)C)C(=O)N[C@@H](CC(=O)O)C(=O)N[C@H](C(=O)N1CCC[C@H]1C(=O)N[C@H](C(=O)NCC(=O)N[C@@H](CC(C)C)C(=O)N[C@@H](CC(C)C)C(=O)N[C@@H](CCC(N)=O)C(=O)N[C@H](C(=O)N[C@@H](CC(C)C)C(=O)N[C@@H](CC(C)C)C(=O)N[C@@H](CCC(=O)O)C(=O)N[C@@H](CCC(N)=O)C(=O)N[C@@H](C)C(=O)N[C@@H](CCCNC(=N)N)C(=O)N[C@@H](C)C(=O)N[C@@H](CCC(N)=O)C(=O)N[C@@H](C)C(=O)N[C@@H](CCC(N)=O)C(=O)N[C@@H](CCCNC(=N)N)C(=O)N[C@@H](CCC(=O)O)C(=O)N[C@@H](CCC(N)=O)C(=O)N[C@@H](C)C(=O)N[C@@H](CCCCNC(=O)COCCOCCNC(=O)COCCOCCNC(=O)CC[C@H](NC(=O)CC[C@H](NC(=O)CCCCCCCCCCCCCCCCCCC(=O)O)C(=O)O)C(=O)O)C(=O)N[C@H](C(=O)N[C@@H](CC(N)=O)C(=O)N[C@@H](C)C(=O)N[C@@H](CCC(=O)O)C(=O)N[C@H](C(=O)N[C@@H](CC(C)C)C(=O)N[C@@H](C)C(=O)N[C@@H](CCC(=O)O)C(=O)N[C@H](C(N)=O)C(C)C)[C@@H](C)CC)[C@@H](C)O)[C@@H](C)CC)[C@@H](C)CC)C(C)C)C(C)C [SEQ ID NO: 31] (H-IVLSLDVPIGLLQILLEQARAQAQREQAK([AEEA-AEEA-γGlu-γGlu-C20 diacid])TNAEILAEV-NH2)
– | – | 0.1 | 1260 | CCCC[C@H](NC(=O)[C@@H](NC(=O)[C@H](CCC(=O)O)NC(=O)[C@H](C)NC(=O)[C@H](CC(N)=O)NC(=O)[C@@H](NC(=O)[C@H](CCCCNC(=O)COCCOCCNC(=O)COCCOCCNC(=O)CC[C@H](NC(=O)CC[C@H](NC(=O)CCCCCCCCCCCCCCCCCCC(=O)O)C(=O)O)C(=O)O)NC(=O)[C@H](C)NC(=O)[C@H](CCC(N)=O)NC(=O)[C@H](CCC(=O)O)NC(=O)[C@H](CCCNC(=N)N)NC(=O)[C@H](C)NC(=O)[C@H](C)NC(=O)[C@H](CCC(N)=O)NC(=O)[C@H](C)NC(=O)[C@H](CCCNC(=N)N)NC(=O)[C@H](C)NC(=O)[C@H](CCC(N)=O)NC(=O)[C@H](CCC(=O)O)NC(=O)[C@H](CC(C)C)NC(=O)[C@H](CC(C)C)NC(=O)[C@@H](NC(=O)[C@H](CCC(N)=O)NC(=O)[C@H](CC(C)C)NC(=O)[C@H](CC(C)C)NC(=O)CNC(=O)[C@@H](NC(=O)[C@@H]1CCCN1C(=O)[C@@H](NC(=O)[C@H](CC(=O)O)NC(=O)[C@H](CC(C)C)NC(=O)[C@H](CO)NC(=O)[C@H](CC(C)C)NC(=O)[C@@H](NC(=O)[C@@H](N)[C@@H](C)CC)C(C)C)C(C)C)[C@@H](C)CC)[C@@H](C)CC)[C@@H](C)O)[C@@H](C)CC)C(=O)N[C@@H](C)C(=O)N[C@@H](CCC(=O)O)C(=O)N[C@H](C(N)=O)[C@@H](C)CC [SEQ ID NO: 44] (H-IVLSLDVPIGLLQILLEQARAQAAREQAK([AEEA-AEEA-γGlu-γGlu-C20 diacid])TNAEI[Nle]AEI-NH2)
– | – | 0.398 | 63100 | CCCC[C@H](NC(=O)[C@@H](NC(=O)[C@H](CCC(=O)O)NC(=O)[C@H](C)NC(=O)[C@H](CC(N)=O)NC(=O)[C@@H](NC(=O)[C@H](CCCCNC(=O)COCCOCCNC(=O)COCCOCCNC(=O)CC[C@H](NC(=O)CC[C@H](NC(=O)CCCCCCCCCCCCCCCCCCC(=O)O)C(=O)O)C(=O)O)NC(=O)[C@H](C)NC(=O)[C@H](CCC(=O)O)NC(=O)[C@H](CCC(N)=O)NC(=O)[C@H](CCCNC(=N)N)NC(=O)[C@H](CC(C)C)NC(=O)[C@H](C)NC(=O)[C@H](CCCNC(=N)N)NC(=O)[C@H](C)NC(=O)[C@H](CCCNC(=N)N)NC(=O)[C@H](C)NC(=O)[C@H](CCC(N)=O)NC(=O)[C@H](CCC(=O)O)NC(=O)[C@H](CC(C)C)NC(=O)[C@H](CC(C)C)NC(=O)[C@@H](NC(=O)[C@H](CCC(N)=O)NC(=O)[C@H](CC(C)C)NC(=O)[C@H](CC(C)C)NC(=O)CNC(=O)[C@@H](NC(=O)[C@@H]1CCCN1C(=O)[C@@H](NC(=O)[C@H](CC(=O)O)NC(=O)[C@H](CC(C)C)NC(=O)[C@H](CO)NC(=O)[C@H](CC(C)C)NC(=O)[C@@H](NC(=O)[C@@H](N)[C@@H](C)CC)C(C)C)C(C)C)[C@@H](C)CC)[C@@H](C)CC)[C@@H](C)O)[C@@H](C)CC)C(=O)N[C@@H](C)C(=O)N[C@@H](CCC(=O)O)C(=O)N[C@H](C(N)=O)C(C)C [SEQ ID NO: 38] (H-IVLSLDVPIGLLQILLEQARARALRQEAK([AEEA-AEEA-γGlu-γGlu-C20 diacid])TNAEI[Nle]AEV-NH2)
– | – | 0.794 | 63100 | CC[C@H](C)[C@H](N)C(=O)N[C@H](C(=O)N[C@@H](CC(C)C)C(=O)N[C@@H](CO)C(=O)N[C@@H](CC(C)C)C(=O)N[C@@H](CC(=O)O)C(=O)N[C@H](C(=O)N1CCC[C@H]1C(=O)N[C@H](C(=O)NCC(=O)N[C@@H](CC(C)C)C(=O)N[C@@H](CC(C)C)C(=O)N[C@@H](CCC(N)=O)C(=O)N[C@H](C(=O)N[C@@H](CC(C)C)C(=O)N[C@@H](CC(C)C)C(=O)N[C@@H](CCC(=O)O)C(=O)N[C@@H](CCC(N)=O)C(=O)N[C@@H](C)C(=O)N[C@@H](CCCNC(=N)N)C(=O)N[C@@H](C)C(=O)N[C@@H](CCC(=O)O)C(=O)N[C@@H](CO)C(=O)N[C@@H](C)C(=O)N[C@@H](CCCNC(=N)N)C(=O)N[C@@H](CCC(=O)O)C(=O)N[C@@H](CCCNC(=N)N)C(=O)N[C@@H](C)C(=O)N[C@@H](CCCCNC(=O)COCCOCCNC(=O)COCCOCCNC(=O)CC[C@H](NC(=O)CC[C@H](NC(=O)CCCCCCCCCCCCCCCCCCC(=O)O)C(=O)O)C(=O)O)C(=O)N[C@H](C(=O)N[C@@H](CC(N)=O)C(=O)N[C@@H](C)C(=O)N[C@@H](CCC(=O)O)C(=O)N[C@H](C(=O)N[C@@H](CC(C)C)C(=O)N[C@@H](C)C(=O)N[C@@H](CCC(=O)O)C(=O)N[C@H](C(N)=O)[C@@H](C)CC)[C@@H](C)CC)[C@@H](C)O)[C@@H](C)CC)[C@@H](C)CC)C(C)C)C(C)C [SEQ ID NO: 21] (H-IVLSLDVPIGLLQILLEQARAESARERAK([AEEA-AEEA-γGlu-γGlu-C20 diacid])TNAEILAEI-NH2)
